Assay [1] addresses rhIDO (recombinant human IDO) (Homo sapiens, UniProt P14902). Put plainly: Enzyme assay using rhIDO (rate of kynurenine production). The format is biochemical. The note with it: 2 h; final concentration of the compound 10 μM; rate relative to reaction without compound; read-out: rhIDO-mediated kynurenine production. The gist of the method:
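rhIDO preincubated with compound 10 min at 37 °C in phosphate buffer with ascorbate, methylene blue and catalase; started with 2 mM tryptophan solution (stock) and run 120 min at 37 °C. Stopped with TCA and heated to convert N-formylkynurenine; kynurenine read at 490 nm after p-dimethylbenzaldehyde, background-subtracted, as % of no-compound control.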

For assay [2], the target named is T1, TDO in A172 cells (Homo sapiens, UniProt P48775).
T1 construct: endogenous in cells; host or cells: A172 cells
The experiment in a line: TDO cell-based assay, kynurenine production in A172 cells. Particulars: A 172; final concentration of the compound 10 μM; rate relative to culture without compound. In outline: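 A172 cells were preincubated with compound for 1 h, then given L-tryptophan (final 524 μM) for 24 h at 37 °C. Kynurenine was read at 460 nm after p-dimethylbenzaldehyde/TCA reagent, background-subtracted, and expressed as % of no-compound production.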

Assay [3] concerns the target rhTDO (recombinant human TDO) (Homo sapiens, UniProt P48775). The experiment in a line: Enzyme assay using rhTDO (rate of kynurenine production). The format is biochemical. Particulars: 2 h, read-out: rhTDO-mediated kynurenine production; for remaining activity at 10 µM: final concentration of the compound 10 μM, rate relative to reaction without compound. In outline:
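Kynurenine output, as percent of untreated control after background subtraction, read at 490 nm with p-dimethylbenzaldehyde following TCA quench and 15 min heating at 50 °C. Reaction: rhTDO with compound, 10 min preincubation then 120 min at 37 °C, started by 20 mM tryptophan stock, in phosphate/ascorbate/methylene blue/catalase.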

Assay [4] addresses T2, IDO in A431 cells (Homo sapiens, UniProt P14902).
T2 construct: endogenous in cells; host or cells: A431 cells, IFN-γ stimulated
Put plainly: IDO cell-based assay, kynurenine production in IFN-γ stimulated A431 cells. Particulars: A-431, 24 h; final concentration of the compound 10 μM; rate relative to culture without compound. The gist of the method: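 A431 cells were cultured 24 h, then preincubated 1 h with compound in medium containing 178 μM L-tryptophan, and stimulated with IFN-γ (diluted to 100 ng/mL before addition) for 24 h. Kynurenine was measured by p-dimethylbenzaldehyde absorbance at 460 nm, background-subtracted, and expressed as % production versus no-compound control.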

Where a name gives a salt, the structure may show the parent alone.

This note sets out measurements from patent publication US12209079B2 (GENERAL INCORPORATED ASSOCIATION PHARMA VALLEY PROJECT …, priority 2017, dated 2025).

Chain of rhTDO (recombinant human TDO) (P48775 whole entry): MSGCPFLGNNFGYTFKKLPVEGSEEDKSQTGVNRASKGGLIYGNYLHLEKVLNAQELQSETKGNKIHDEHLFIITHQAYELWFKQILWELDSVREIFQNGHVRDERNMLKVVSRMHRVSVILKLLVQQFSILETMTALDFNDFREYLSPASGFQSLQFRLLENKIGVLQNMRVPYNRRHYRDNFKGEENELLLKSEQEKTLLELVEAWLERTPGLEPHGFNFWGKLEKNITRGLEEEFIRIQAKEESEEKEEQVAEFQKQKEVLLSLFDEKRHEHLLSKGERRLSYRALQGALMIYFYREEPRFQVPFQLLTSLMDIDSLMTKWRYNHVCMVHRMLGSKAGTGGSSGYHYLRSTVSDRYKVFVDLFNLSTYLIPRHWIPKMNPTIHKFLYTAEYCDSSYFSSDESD
T1 sequence (P48775 whole entry): as above
T2 sequence (P14902 whole entry): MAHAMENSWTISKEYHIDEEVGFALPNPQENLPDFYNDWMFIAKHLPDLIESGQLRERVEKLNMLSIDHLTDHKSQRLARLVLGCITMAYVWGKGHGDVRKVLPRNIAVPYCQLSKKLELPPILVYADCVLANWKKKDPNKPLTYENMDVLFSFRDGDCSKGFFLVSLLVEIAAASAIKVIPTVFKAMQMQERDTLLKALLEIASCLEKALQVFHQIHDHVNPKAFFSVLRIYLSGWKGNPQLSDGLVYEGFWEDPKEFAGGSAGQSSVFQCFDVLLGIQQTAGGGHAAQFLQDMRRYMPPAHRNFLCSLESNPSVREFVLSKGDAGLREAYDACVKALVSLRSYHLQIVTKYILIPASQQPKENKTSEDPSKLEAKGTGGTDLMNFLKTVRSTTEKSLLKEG
Chain of rhIDO (recombinant human IDO) (P14902 whole entry): as above

Consider `Clc1ccc(CCN2CN=C(SCc3ccccc3CSC3=NCN(CCc4ccc(Cl)c(Cl)c4)CN3)NC2)cc1Cl` [Compound 22, 1,2-bis(((5-(3,4-dichlorophenethyl)-1,4,5,6-tetrahydro-1,3,5-triazin-2-yl)thio)methyl)benzene], for which the remaining activity at 10 µM in assay [1] was 20%; in assay [2] it was -1%; in assay [3] it was 21%; in assay [4] it was 6%.

Take `c1cnc(SCc2ccccc2CSc2ncccn2)nc1` [Compound 16, 1,2-bis((pyrimidin-2-ylthio)methyl)benzene]: the remaining activity at 10 µM in assay [1] was 66%; in assay [2] it was 74%; in assay [3], 68%; in assay [4] it was 76%.

Regarding `CNC(=O)c1ccc(C#N)cc1CS/C(N)=N/c1ccc(Br)cc1` [Compound 81, 5-Cyano-2-(methylcarbamoyl)benzyl (E)-N′-(4-bromophenyl)carbamimidothioate hydrobromide], the remaining activity at 10 µM is 81% in assay [1], 89% in assay [2], 121% in assay [3] and 78% in assay [4].

For the molecule `N=C(N)SCc1ccccc1CC(=O)NCCc1ccccc1` [Compound 64, 2-(2-Oxo-2-(phenethylamino)ethyl)benzyl carbamimidothioate hydrobromide], the remaining activity at 10 µM in assay [1] came out at 81%; in assay [2] it was 76%; in assay [3], 42%; in assay [4], 102%.

In the case of `COc1cccc(CNC(=O)c2ccc(Br)cc2C[Se]C(=N)N)c1` [Compound 106, 5-Bromo-2-((3-methoxybenzyl)carbamoyl)benzyl carbamimidoselenoate hydrobromide], the remaining activity at 10 µM in assay [1] worked out at 90%; in assay [2], 48%; in assay [3], 98%; in assay [4] it was 64%.

Consider `c1csc(CCN2CN=C(SCc3ccccc3CSC3=NCN(CCc4cccs4)CN3)NC2)c1` [Compound 40, 1,2-Bis (((5-(2-(thiophen-2-yl)ethyl)-1,4,5,6-tetrahydro-1,3,5-triazin-2-yl)thio)methyl)benzene], for which the remaining activity at 10 µM came to 34% in assay [1], 1% in assay [2], 29% in assay [3] and 9% in assay [4].

Regarding `N=C(N)SCc1cc(Br)ccc1C(=O)NCC1CCCCC1` [Compound 74, 5-Bromo-2-((cyclohexylmethyl)carbamoyl)benzyl carbamimidothioate hydrobromide], the remaining activity at 10 µM in assay [1] stood at 70%; in assay [2] it was 47%; in assay [3] it was 29%; in assay [4], 75%.

`c1ccc(CCN2CN=C(SCc3ccccc3CSC3=NCN(CCc4ccccc4)CN3)NC2)cc1` [Compound 9, 1,2-bis(((5-phenethyl-1,4,5,6-tetrahydro-1,3,5-triazin-2-yl)thio)methyl)benzene]: the remaining activity at 10 µM in assay [1] was determined as 30%; in assay [2], 0%; in assay [3] it was 36%; in assay [4] it was 10%.

On to `Clc1ccc(CCN2CN=C(SCc3ccc(Br)cc3CSC3=NCN(CCc4ccc(Cl)c(Cl)c4)CN3)NC2)cc1Cl` [Compound 39, 6,6′-(((4-Bromo-1,2-phenylene)bis(methylene))bis(sulfanediyl))bis(3-(3,4-dichlorophenethyl)-1,2,3,4-tetrahydro-1,3,5-triazine)], for which the remaining activity at 10 µM in assay [1] was 7%; in assay [2], 7%; in assay [3] it was 38%; in assay [4], 0%.

For `COC(=O)c1c(CSC(=N)N)[nH]c2ccccc12` [Compound 32, Methyl 2-((carbamimidoylthio)methyl)-1H-indole-3-carboxylate hydrobromide], the remaining activity at 10 µM in assay [1] amounted to 59%; in assay [2], 52%; in assay [3], 51%; in assay [4], 54%.

Turning to `N=C(N)SCc1ccccc1CC(=O)NCCC1CCCCC1` [Compound 69, 2-(2-((2-Cyclohexylethyl)amino)-2-oxoethyl)benzyl carbamimidothioate hydrobromide], the remaining activity at 10 µM in assay [1] worked out at 76%; in assay [2] it was 73%; in assay [3], 60%; in assay [4], 101%.

For `N#Cc1ccc(CNC(=O)c2cc(Br)ccc2CS/C(N)=N/c2ccc(Br)cc2)cc1` [Compound 119, 4-Bromo-2-((4-cyanobenzyl)carbamoyl)benzyl (E)-N′-(4-bromophenyl)carbamimidothioate hydrobromide], the remaining activity at 10 µM was 25% in assay [1], 12% in assay [2], 50% in assay [3] and 4% in assay [4].

For the molecule `CC(C)(C)c1ccc(CSC(=N)N)c(CSC(=N)N)c1` [Compound 4, (4-(tert-butyl)-1,2-phenylene)bis(methylene) dicarbamimidothioate dihydrobromide], the remaining activity at 10 µM in assay [1] was 64%; in assay [2] it was 102%; in assay [3] it was 56%; in assay [4], 68%.

In the case of `N#Cc1ccc(CNC(=O)c2ccc(Br)cc2C[Se]C(=N)N)cc1` [Compound 113, 5-Bromo-2-((4-cyanobenzyl)carbamoyl)benzyl carbamimidoselenoate hydrobromide], the remaining activity at 10 µM in assay [1] amounted to 92%; in assay [2], 44%; in assay [3] it was 58%; in assay [4], 73%.

On to `N=C(N)SCCc1ccccc1CSC(=N)N` [Compound 51, 2-(2-(Carbamimidoylthio)ethyl)benzyl carbamimidothioate dihydrobromide], for which the remaining activity at 10 µM in assay [1] is 19%; in assay [2], 25%; in assay [3] it was 13%; in assay [4], 23%.

Regarding `N#Cc1ccc(CNC(=O)c2ccc(Br)cc2CS/C(N)=N/c2ccc(F)c(Cl)c2)cc1` [Compound 85, 5-Bromo-2-((4-cyanobenzyl)carbamoyl)benzyl (E)-N′-(3-chloro-4-fluorophenyl)carbamimidothioate hydrobromide], the remaining activity at 10 µM amounted to 71% in assay [1], 16% in assay [2], 50% in assay [3] and 56% in assay [4].

`N/C(=N\c1ccc(F)cc1F)SCc1cc(Cl)c(Cl)cc1CS/C(N)=N/c1ccc(F)cc1F` [Compound 63, (4,5-Dichloro-1,2-phenylene)bis(methylene) (E,E)-bis(N′-(2,4-difluorophenyl)carbamimidothioate) dihydrobromide]: the remaining activity at 10 µM was determined as 0% in assay [1], 5% in assay [2] and 2% in assay [4]. In addition, in assay [3] (final concentration of the compound 3 μM (data with *)), the remaining activity at 3 µM was 16%.

In the case of `CNC(=O)Cc1ccccc1CS/C(N)=N/c1ccc(Br)cc1` [Compound 79, 2-(2-(Methylamino)-2-oxoethyl)benzyl (E)-N′-(4-bromophenyl)carbamimidothioate hydrobromide], the remaining activity at 10 µM in assay [1] amounted to 90%; in assay [2], 38%; in assay [3], 34%; in assay [4], 60%.

Turning to `N/C(=N\c1ccc(F)cc1F)SCc1ccc(F)cc1CS/C(N)=N/c1ccc(F)cc1F` [Compound 130, (4-Fluoro-1,2-phenylene)bis(methylene) (E,E)-bis(N′-(2,4-difluorophenyl)carbamimidothioate) dihydrobromide], the remaining activity at 10 µM in assay [1] came to 1%; in assay [2] it was 9%; in assay [3] it was 8%; in assay [4], 1%.

Take `N=C(N)SCc1ccccc1CC(=O)NCCCCc1ccccc1` [Compound 72, 2-(2-Oxo-2-((4-phenylbutyl)amino)ethyl)benzyl carbamimidothioate hydrobromide]: the remaining activity at 10 µM in assay [1] was found to be 70%; in assay [2], 68%; in assay [3], 47%; in assay [4], 69%.

`Clc1ccc(CCN2CN=C(SCc3ccccc3CSC3=NCN(CCc4ccc(Cl)cc4)CN3)NC2)cc1` [Compound 17, 1,2-bis(((5-(4-chlorophenethyl)-1,4,5,6-tetrahydro-1,3,5-triazin-2-yl)thio)methyl)benzene]: the remaining activity at 10 µM in assay [1] amounted to 30%; in assay [2] it was 0%; in assay [3] it was 25%; in assay [4], 8%.
